For this assay, the target named is Nucleotide-binding oligomerization domain-containing protein 2 (Homo sapiens, UniProt Q9HC29). Nature of the assay: inhibition of NOD2 signaling – set 2, SAR follow-up (AID 2475).

Structures are written as SMILES.

Sequence of Nucleotide-binding oligomerization domain-containing protein 2 (Q9HC29 whole entry, the tested form may be a part): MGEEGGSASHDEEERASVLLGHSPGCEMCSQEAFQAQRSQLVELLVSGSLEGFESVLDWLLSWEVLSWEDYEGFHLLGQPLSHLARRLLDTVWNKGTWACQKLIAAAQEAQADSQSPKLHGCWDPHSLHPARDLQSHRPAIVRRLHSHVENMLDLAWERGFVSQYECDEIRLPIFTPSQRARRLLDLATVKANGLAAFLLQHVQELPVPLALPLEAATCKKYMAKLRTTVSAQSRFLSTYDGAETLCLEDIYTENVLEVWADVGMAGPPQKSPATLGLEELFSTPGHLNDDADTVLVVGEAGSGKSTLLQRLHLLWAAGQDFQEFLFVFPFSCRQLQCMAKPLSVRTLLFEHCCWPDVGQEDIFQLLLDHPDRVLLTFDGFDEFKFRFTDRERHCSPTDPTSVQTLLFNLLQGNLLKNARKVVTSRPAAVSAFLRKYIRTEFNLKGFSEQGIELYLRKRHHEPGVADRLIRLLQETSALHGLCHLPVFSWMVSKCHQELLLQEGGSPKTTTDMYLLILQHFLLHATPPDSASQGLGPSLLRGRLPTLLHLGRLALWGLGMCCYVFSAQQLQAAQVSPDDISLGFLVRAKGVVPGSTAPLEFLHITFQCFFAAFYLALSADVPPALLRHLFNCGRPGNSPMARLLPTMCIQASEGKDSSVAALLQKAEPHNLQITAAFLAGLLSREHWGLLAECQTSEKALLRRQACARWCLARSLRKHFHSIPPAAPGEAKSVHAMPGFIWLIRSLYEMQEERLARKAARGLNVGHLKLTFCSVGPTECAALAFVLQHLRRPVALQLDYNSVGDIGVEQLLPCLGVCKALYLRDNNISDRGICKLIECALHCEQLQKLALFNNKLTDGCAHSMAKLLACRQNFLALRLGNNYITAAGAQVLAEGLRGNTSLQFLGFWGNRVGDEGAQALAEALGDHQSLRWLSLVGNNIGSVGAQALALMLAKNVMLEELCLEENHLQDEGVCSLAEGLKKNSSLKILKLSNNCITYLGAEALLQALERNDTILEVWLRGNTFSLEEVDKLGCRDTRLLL

As usually defined, the IC50 is the concentration that gives 50% inhibition. A high value points to weaker potency. Compound `Cc1cc(SCC(=O)OCC(=O)C(C#N)c2nc3ccccc3[nH]2)c(C)cc1Br` (configuration not stated) had an IC50 of 5.19 µM.

The compound `Cc1ccc(C)c(SCC(=O)OCC(=O)C(C#N)c2nc3ccccc3[nH]2)c1` (configuration not stated) [MLS000392255] gave an IC50 of 4.21 µM.

The record behind these values is BindingDB's records for doi:10.7270/Q2JW8CBM (Burnham Center For Chemical Genomics, 2010).
